In patent publication US11566007B2, “Ras inhibitors” (Revolution Medicines, Inc., priority 2019, dated 2023):
Values joined by “and” are separate entries in the source; they are usually repeats but may differ in a detail not shown here. Identical values can stand only once. Like-named read-outs stand apart in the source and are kept apart here.

Assays:
KRAS G12V = KRAS G12V (Homo sapiens (Human), UniProt P01116+P62937, G12V); experiment: Ras-Raf (BRAF RBD) disruption / FRET / MOA assay, KRAS G12V; format: biochemical; conditions: read-out: IC50* KRAS G12V FRET data
Procedure, shortened: (§1)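 TR-FRET read-out: a drop in ratio relative to DMSO wells marks disruption of the Ras:RAF complex, reported as IC50. Compounds (3-fold series, 10 points, top 30 μM final) incubated 3 h at 25° C before Eu-anti-His 10 nM and APC-anti-GST 50 nM, 1.5 h more.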

NRAS G12C = NRAS G12C (Homo sapiens (Human), UniProt P01111+P62937, G12C); experiment: Ras-Raf (BRAF RBD) disruption / FRET / MOA assay, NRAS G12C; format: biochemical; conditions: read-out: IC50* NRAS G12C FRET data
Procedure, shortened: as §1

KRAS WT = KRAS WT (Homo sapiens (Human), UniProt P01116+P62937); experiment: Ras-Raf (BRAF RBD) disruption / FRET / MOA assay, KRAS WT; format: biochemical; conditions: read-out: IC50* KRAS WT FRET data
Procedure, shortened: as §1

KRAS G12D = KRAS G12D (Homo sapiens (Human), UniProt P01116+P62937, G12D); experiment: Ras-Raf (BRAF RBD) disruption / FRET / MOA assay, KRAS G12D; format: biochemical; conditions: Ras-Raf disruption/FRET/MOA assay; class symbols; read-out: KRAS G12D FRET data IC50
Procedure, shortened: as §1

K-Ras G13C = K-Ras G13C (Homo sapiens (Human), UniProt P01116+P62937, G13C); experiment: Ras-Raf (BRAF RBD) disruption / FRET / MOA assay, KRAS G13C; format: biochemical
Procedure, shortened: as §1

KRAS G13D = KRAS G13D (Homo sapiens (Human), UniProt P01116+P62937, G13D); experiment: Ras-Raf (BRAF RBD) disruption / FRET / MOA assay, KRAS G13D; format: biochemical; conditions: read-out: IC50* KRAS G13D FRET data
Procedure, shortened: as §1

K-Ras G12C = K-Ras G12C (Homo sapiens (Human), UniProt P01116+P62937, G12C); experiment: Ras-Raf (BRAF RBD) disruption / FRET / MOA assay, KRAS G12C; format: biochemical
Procedure, shortened: as §1

KRAS G12S = KRAS G12S (Homo sapiens (Human), UniProt P01116+P62937, G12S); experiment: Ras-Raf (BRAF RBD) disruption / FRET / MOA assay, KRAS G12S; format: biochemical; conditions: Ras-Raf disruption/FRET/MOA assay; class symbols; read-out: KRAS G12S FRET data IC50
Procedure, shortened: as §1

NCI-H358 (K-Ras G12C) = experiment: CellTiter-Glo cell viability assay, NCI-H358; format: cell-based, human; conditions: NCI-H358, 5-day treatment
Procedure, shortened: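 Steps: compound dispensed into wells holding cells; incubation to day 5; ~30 min room-temperature equilibration; luminescence read; sample signal divided by mean DMSO signal, times 100; four-parameter logistic curve fit.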

[1] = system: NCI-H358 cells (K-Ras G12C); experiment: Potency assay: pERK in NCI-H358 cells; format: cell-based, human; conditions: Homo sapiens, NCI-H358; H358 KRAS G12C; read-out: pERK EC50
Procedure, shortened: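 Inhibition of cellular pERK after a 4 h treatment, detected by AlphaLISA or In-Cell Western. IC50 from a four-parameter concentration-response fit.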

[2] = KRAS G13C, Ras-Raf disruption/FRET/MOA assay, read-out: IC50* KRAS G13C FRET data
[3] = KRAS G12C, Ras-Raf disruption/FRET/MOA assay, read-out: IC50* KRAS G12C FRET data
[4] = Homo sapiens, NCI-H358, 120 h, class symbols, read-out: Additional H358 Cell Viability assay data (K-Ras G12C, IC50)
[5] = class symbols, read-out: Additional H358 Cell Viability assay data (K-Ras G12C, IC50)

Chain of K-Ras G12C (P01116-2 other isoform, or with tags, fused parts or gaps G12C): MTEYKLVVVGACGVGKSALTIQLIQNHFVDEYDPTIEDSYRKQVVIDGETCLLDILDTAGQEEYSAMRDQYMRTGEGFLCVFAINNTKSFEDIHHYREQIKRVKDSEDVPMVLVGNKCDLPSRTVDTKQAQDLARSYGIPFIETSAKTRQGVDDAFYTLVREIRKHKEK
Chain of K-Ras G12C (P62937 whole entry): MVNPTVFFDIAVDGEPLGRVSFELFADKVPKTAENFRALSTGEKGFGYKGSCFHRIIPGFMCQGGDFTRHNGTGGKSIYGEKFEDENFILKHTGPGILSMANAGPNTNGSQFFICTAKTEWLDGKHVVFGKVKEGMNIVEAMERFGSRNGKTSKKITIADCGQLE
Chain of KRAS G13D (P01116-2 other isoform, or with tags, fused parts or gaps G13D): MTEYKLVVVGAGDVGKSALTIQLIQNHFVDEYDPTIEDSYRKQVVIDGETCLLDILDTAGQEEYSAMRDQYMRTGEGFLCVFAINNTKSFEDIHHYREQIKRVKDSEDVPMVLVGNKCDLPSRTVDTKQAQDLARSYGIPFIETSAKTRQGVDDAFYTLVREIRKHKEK
Chain of KRAS G13D (P62937 whole entry): as the sequence (P62937 whole entry) above
Chain of NRAS G12C (P01111 whole entry G12C): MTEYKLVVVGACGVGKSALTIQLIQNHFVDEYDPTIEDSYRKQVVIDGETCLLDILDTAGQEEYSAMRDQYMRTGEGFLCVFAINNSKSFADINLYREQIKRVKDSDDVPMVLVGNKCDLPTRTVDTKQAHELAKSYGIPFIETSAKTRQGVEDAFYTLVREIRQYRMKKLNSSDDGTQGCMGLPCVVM
Chain of NRAS G12C (P62937 whole entry): as the sequence (P62937 whole entry) above
Chain of KRAS G12D (P01116-2 other isoform, or with tags, fused parts or gaps G12D): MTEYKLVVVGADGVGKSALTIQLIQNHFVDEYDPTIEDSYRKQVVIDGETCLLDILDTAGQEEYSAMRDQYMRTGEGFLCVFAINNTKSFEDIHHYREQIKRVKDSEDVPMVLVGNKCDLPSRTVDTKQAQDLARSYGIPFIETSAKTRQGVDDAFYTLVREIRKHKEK
Chain of KRAS G12D (P62937 whole entry): as the sequence (P62937 whole entry) above
Chain of K-Ras G13C (P01116-2 other isoform, or with tags, fused parts or gaps G13C): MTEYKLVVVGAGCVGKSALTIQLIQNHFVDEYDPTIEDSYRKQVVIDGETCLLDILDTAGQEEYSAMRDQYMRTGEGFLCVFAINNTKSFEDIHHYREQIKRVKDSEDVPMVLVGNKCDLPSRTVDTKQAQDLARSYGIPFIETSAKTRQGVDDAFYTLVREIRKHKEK
Chain of K-Ras G13C (P62937 whole entry): as the sequence (P62937 whole entry) above
Chain of KRAS G12S (P01116-2 other isoform, or with tags, fused parts or gaps G12S): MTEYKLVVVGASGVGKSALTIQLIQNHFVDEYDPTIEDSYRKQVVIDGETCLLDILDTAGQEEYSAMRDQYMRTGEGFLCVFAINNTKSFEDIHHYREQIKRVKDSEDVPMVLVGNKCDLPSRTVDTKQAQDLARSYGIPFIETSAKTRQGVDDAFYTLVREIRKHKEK
Chain of KRAS G12S (P62937 whole entry): as the sequence (P62937 whole entry) above
Chain of KRAS WT (P01116-2 other isoform, or with tags, fused parts or gaps): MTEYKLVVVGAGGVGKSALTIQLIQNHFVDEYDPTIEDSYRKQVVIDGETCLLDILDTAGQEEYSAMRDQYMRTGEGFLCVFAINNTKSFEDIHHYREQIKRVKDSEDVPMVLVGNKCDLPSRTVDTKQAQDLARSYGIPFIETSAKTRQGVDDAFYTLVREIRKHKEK
Chain of KRAS WT (P62937 whole entry): as the sequence (P62937 whole entry) above
Chain of KRAS G12V (P01116-2 other isoform, or with tags, fused parts or gaps G12V): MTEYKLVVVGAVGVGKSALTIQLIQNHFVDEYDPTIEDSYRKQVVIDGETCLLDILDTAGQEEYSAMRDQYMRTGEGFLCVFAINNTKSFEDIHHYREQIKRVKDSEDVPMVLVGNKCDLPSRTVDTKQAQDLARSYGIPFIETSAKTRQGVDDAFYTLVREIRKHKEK
Chain of KRAS G12V (P62937 whole entry): as the sequence (P62937 whole entry) above

IC50 (NCI-H358 (K-Ras G12C); [5]) [nM] | Compound | IC50 (KRAS G12V) | IC50 (NRAS G12C) | IC50 (KRAS WT) | IC50 (KRAS G12D) | IC50 (K-Ras G13C; [2]) | IC50 (KRAS G13D) | IC50 (K-Ras G12C; [3]) | IC50 (KRAS G12S) | IC50 (NCI-H358 (K-Ras G12C); [4]) [nM] | EC50 [1] [nM] | IC50 (K-Ras G13C; with Cyclophilin A, BRAF RBD, read-out: FRET (K-Ras G13C) IC50) [nM] | IC50 (K-Ras G12C; with Cyclophilin A, BRAF RBD, read-out: FRET (K-Ras G12C) IC50) [nM] | IC50 (NCI-H358 (K-Ras G12C); Homo sapiens, NCI-H358, 120 h, read-out: H358 Cell Viability (K-Ras G12C) IC50) [nM]
– | CCn1c(-c2ccccc2CN(C)C)c2c3cc(ccc31)-c1cc(O)cc(c1)C[C@H](NC(=O)[C@H](C(C)C)N(C)C(=O)c1ncc(NC(=O)/C=C/CN(C)C)s1)C(=O)N1CCC[C@H](N1)C(=O)OCC(C)(C)C2 (atropisomer, axis not shown) [Example A163] | > 10000 nM | 1000 to 10000 nM | 1000 to 10000 nM | 1000 to 10000 nM | 10 to 100 nM | 1000 to 10000 nM | 1000 to 10000 nM | > 10000 nM | > 1000 | < 5000 | – | – | –
– | CC#CC(=O)N1CC[C@H](C(=O)N(C)[C@H](C(=O)N[C@H]2Cc3cccc(c3)-c3ccc4c(c3)c(c(-c3cccnc3[C@H](C)OC)n4CC)CC(C)(C)COC(=O)[C@@H]3CCCN(N3)C2=O)C(C)C)C1 (atropisomer, axis not shown) [Example A173] | 1000 to 10000 nM | 100 to 1000 nM | > 10000 nM | > 10000 nM | > 10000 nM | > 10000 nM | 100 to 1000 nM | 1000 to 10000 nM | 10 to 100 | < 5000 | – | – | –
< 10 | CCn1c(-c2cncnc2[C@H](C)OC)c2c3cc(ccc31)-c1cc(O)cc(c1)C[C@H](NC(=O)[C@H](C(C)C)N(C)C(=O)[C@H]1CCN(C(=O)C#CCN3CCOCC3)C1)C(=O)N1CCC[C@H](N1)C(=O)OCC(C)(C)C2 (atropisomer, axis not shown) [Example A182] | 100 to 1000 nM and 1000 to 10000 nM | 10 to 100 nM and < 10 nM | 100 to 1000 nM and 1000 to 10000 nM | 1000 to 10000 nM and > 10000 nM | 10 to 100 nM and 1000 to 10000 nM | 100 to 1000 nM and 1000 to 10000 nM | 10 to 100 nM and < 10 nM | 100 to 1000 nM and 1000 to 10000 nM | 10 to 100 | < 5000 | – | – | –
– | CCn1c(-c2cccnc2[C@H](C)OC)c2c3cc(ccc31)-c1csc(n1)C[C@H](NC(=O)[C@H](C(C)C)N(C)C(=O)[C@H]1CCN(C(=O)C#CCN3CCOCC3)C1)C(=O)N1CCC[C@H](N1)C(=O)OCC(C)(C)C2 (atropisomer, axis not shown) [Example A186] | 1000 to 10000 nM and > 10000 nM | 10 to 100 nM and 1000 to 10000 nM | > 10000 nM | > 10000 nM | > 10000 nM and 1000 to 10000 nM | > 10000 nM | 10 to 100 nM and 1000 to 10000 nM | 1000 to 10000 nM and > 10000 nM | – | < 5000 | 940 | 38 | 5
– | CO[C@@H](C)c1ncccc1-c1c2c3cc(ccc3n1C)-c1cccc(c1)C[C@H](NC(=O)[C@H](C(C)C)N(C)C(=O)[C@H]1CCN(C(=O)C#CCN3CCOCC3)C1)C(=O)N1CCC[C@H](N1)C(=O)OCC(C)(C)C2 (atropisomer, axis not shown) [Example A192] | > 10000 nM | 100 to 1000 nM and 1000 to 10000 nM | > 10000 nM | > 10000 nM | > 10000 nM | > 10000 nM | 100 to 1000 nM and 1000 to 10000 nM | > 10000 nM | 100 to 1000 | < 5000 | – | – | –
< 10 | C=CC(=O)N1CC[C@H](C(=O)N(C)[C@H](C(=O)N[C@H]2Cc3cc(O)cc(c3)-c3ccc4c(c3)c(c(-c3cnccc3[C@H](CC)OC)n4CC)CC(C)(C)COC(=O)[C@@H]3CCCN(N3)C2=O)C(C)C)C1 (atropisomer, axis not shown) [Example A194] | 100 to 1000 nM and 10 to 100 nM | 100 to 1000 nM and < 10 nM | 1000 to 10000 nM and 10 to 100 nM | 1000 to 10000 nM and 100 to 1000 nM | 10 to 100 nM and 1000 to 10000 nM | 100 to 1000 nM and 1000 to 10000 nM | 100 to 1000 nM and < 10 nM | 100 to 1000 nM and 10 to 100 nM | 10 to 100 | < 5000 | – | – | –
– | C=CC(=O)N1CC[C@H](C(=O)N(C)[C@H](C(=O)N[C@H]2Cc3cccc(c3)-c3ccc4c(c3)c(c(-c3cc(CN(C)C)cnc3[C@H](C)OC)n4CC)CC(C)(C)COC(=O)[C@@H]3CCCN(N3)C2=O)C(C)C)C1 [Example A523] | > 10000 nM | 1000 to 10000 nM | > 10000 nM | > 10000 nM | > 10000 nM | > 10000 nM | 1000 to 10000 nM | > 10000 nM | 100 to 1000 | – | – | – | –
